# Biological target: T1, 5-HT1A serotonin receptors (Rattus norvegicus, UniProt P19327)
# T1 construct: rat hippocampal membrane homogenate; from tissue; host or cells: rat hippocampus, membrane homogenate
# T1 sequence (P19327 1-422): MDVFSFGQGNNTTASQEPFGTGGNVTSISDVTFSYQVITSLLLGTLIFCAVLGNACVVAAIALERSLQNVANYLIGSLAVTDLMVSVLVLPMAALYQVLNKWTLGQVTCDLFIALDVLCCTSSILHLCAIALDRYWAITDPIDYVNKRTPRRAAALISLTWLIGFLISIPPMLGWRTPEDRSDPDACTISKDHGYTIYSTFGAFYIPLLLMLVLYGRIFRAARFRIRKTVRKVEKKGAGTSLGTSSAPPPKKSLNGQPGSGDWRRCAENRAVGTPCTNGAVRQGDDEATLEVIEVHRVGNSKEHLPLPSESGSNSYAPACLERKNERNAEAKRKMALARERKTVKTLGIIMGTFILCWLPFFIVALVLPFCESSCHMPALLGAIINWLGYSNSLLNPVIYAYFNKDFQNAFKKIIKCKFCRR
# Assay: displacement of [3H] 8-OHDPAT from 5-HT1A serotonin receptors in rat hippocampal membrane homogenate
# Assay type: binding
# Conditions: [3H] 8-OHDPAT displacement
# Description: High affinity for the serotonin 5-HT1A receptor was established by testing the claimed compound's ability to displace [^3 H] 8-OHDPAT (dipropylaminotetralin) from the 5-HT1A serotonin receptors in rat hippocampal membrane homogenate following the procedure of B. S. Alexander and M. D. Wood, J. Pharm. Pharmacol. 1988, 40, 888-891. […] Based upon this receptor binding data, the compounds of this invention are characterized as anxiolytic and/or antidepressant agents useful in the treatment of depression and in alleviating anxiety. As such, the compounds may be administered neat or with a pharmaceutical carrier to a patient in need thereof. The pharmaceutical carrier may be solid or liquid.
row,IC50 [nM],SMILES
1,4.33,CC1(C(=O)N[C@@H](CN2CCN(c3cccc4[nH]ccc34)CC2)c2ccccc2)CCCCC1 [Example 1]
2,35.5,CC1(C(=O)N[C@H](CN2CCN(c3cccc4[nH]ccc34)CC2)c2ccccc2)CCCCC1 [Example 2]
